Activity calls are given as the source filed them.
Legend:
Aspartyl aminopeptidase = Aspartyl aminopeptidase (Plasmodium falciparum 3D7, UniProt Q8I2J3)
Procathepsin L = Procathepsin L (Homo sapiens, UniProt P07711)
Aminopeptidase N = biological target: T1, Aminopeptidase N (Plasmodium falciparum FcB1/Columbia, UniProt O96935); experiment: malaria alanyl aminopeptidase activity blockers – biochemical, fluorogenic H-Leu-NHMec substrate, 1536-well (AID 1445); parameters: species or system Plasmodium falciparum 3D7, 3D7
T1 sequence (O96935 whole entry): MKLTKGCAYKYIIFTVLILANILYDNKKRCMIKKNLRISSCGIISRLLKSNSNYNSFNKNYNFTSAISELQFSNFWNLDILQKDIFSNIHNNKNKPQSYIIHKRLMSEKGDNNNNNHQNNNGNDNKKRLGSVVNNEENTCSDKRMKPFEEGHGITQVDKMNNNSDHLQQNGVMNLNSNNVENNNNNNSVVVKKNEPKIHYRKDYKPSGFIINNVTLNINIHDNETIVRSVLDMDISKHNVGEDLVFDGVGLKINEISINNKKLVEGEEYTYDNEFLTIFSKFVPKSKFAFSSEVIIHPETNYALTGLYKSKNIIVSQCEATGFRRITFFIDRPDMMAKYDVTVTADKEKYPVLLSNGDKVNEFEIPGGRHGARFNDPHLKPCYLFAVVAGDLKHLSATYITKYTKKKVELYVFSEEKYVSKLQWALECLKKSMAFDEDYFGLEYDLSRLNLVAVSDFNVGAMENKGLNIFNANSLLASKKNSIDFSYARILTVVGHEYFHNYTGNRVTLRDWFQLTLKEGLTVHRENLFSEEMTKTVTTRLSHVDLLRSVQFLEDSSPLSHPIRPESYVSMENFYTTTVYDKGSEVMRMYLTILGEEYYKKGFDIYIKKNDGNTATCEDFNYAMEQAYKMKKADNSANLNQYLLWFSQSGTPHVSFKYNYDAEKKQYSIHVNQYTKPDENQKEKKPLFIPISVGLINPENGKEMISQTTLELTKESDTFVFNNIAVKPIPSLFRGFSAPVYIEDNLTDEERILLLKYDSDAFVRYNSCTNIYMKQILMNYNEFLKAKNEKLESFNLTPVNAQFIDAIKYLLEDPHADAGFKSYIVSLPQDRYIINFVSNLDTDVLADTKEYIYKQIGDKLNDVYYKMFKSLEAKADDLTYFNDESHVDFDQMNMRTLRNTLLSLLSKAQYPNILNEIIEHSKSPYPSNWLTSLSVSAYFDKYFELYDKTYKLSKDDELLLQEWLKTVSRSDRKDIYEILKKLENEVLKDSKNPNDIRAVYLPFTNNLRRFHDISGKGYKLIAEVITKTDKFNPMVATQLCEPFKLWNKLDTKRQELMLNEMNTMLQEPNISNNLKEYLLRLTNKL

[1] = antiviral protection against BTV-induced cell death – arbovirus, BSR cells, confirmation (AID 1250); assay type: functional;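 note: protection from viral cytopathic effect measured as cell viability by ATP luminescence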
Mucolipin-3 = Mucolipin-3 (Homo sapiens, UniProt Q8TDD5); experiment: Dose response cell-based high-throughput screening assay for agonists of the transient receptor potential channel ML3 (TRPML3). [Related pubchem assays: 1526, 1424, 1448 ]; assay type: functional
Ion channel NompC = Ion channel NompC (Danio rerio, UniProt Q7T1G6); experiment: Fluorescence counterscreen assay for TRPML3 agonists: dose response cell-based high-throughput screening assay to identify agonists of the transient receptor potential channel N1 (TRPN1). [Related pubchem assays: 1526, 1424, 1448 ]; assay type: functional
[2] = NIH-3T3 fibroblast cytotoxicity, dose response, cytotoxicity control, cell-based, fluorescence, Alamar Blue, secondary assay (AID 2327); assay type: functional;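 note: NIH-3T3 mouse fibroblasts cultured with fluconazole at 8 µg/mL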
[3] = fluconazole-exposed Candida albicans growth modulators – fluorescence, retest, confirmation (AID 2467); assay type: functional, cell-based
NS3 = NS3 (Hepatitis C virus, UniProt A3EZJ3); experiment: PubChem AID 2173; parameters: species or system Hepacivirus hominis
[4] = biological target: 26S proteasome non-ATPase regulatory subunit 14 (Homo sapiens, UniProt O00487); experiment: inhibition of proteasome subunit RPN11 – biochemical, fluorescence polarization, uHTS hits, confirmation (AID 602368); assay type: functional
[5] = biological target: 72 kDa type IV collagenase (Homo sapiens, UniProt P08253); experiment: Dose Response validation of uHTS RPN11 inhibitor hits using a MMP-2 Fluorescence assay.; assay type: functional
Prothrombin = Prothrombin (Bos taurus, UniProt P00735); experiment: thrombin protease inhibitors – biochemical, fluorescence polarization, uHTS hits, dose response (AID 602369); assay type: functional
[6] = biological target: T2, Alkaline phosphatase, tissue-nonspecific isozyme (Homo sapiens, UniProt P05186)
T2 sequence (P05186 whole entry): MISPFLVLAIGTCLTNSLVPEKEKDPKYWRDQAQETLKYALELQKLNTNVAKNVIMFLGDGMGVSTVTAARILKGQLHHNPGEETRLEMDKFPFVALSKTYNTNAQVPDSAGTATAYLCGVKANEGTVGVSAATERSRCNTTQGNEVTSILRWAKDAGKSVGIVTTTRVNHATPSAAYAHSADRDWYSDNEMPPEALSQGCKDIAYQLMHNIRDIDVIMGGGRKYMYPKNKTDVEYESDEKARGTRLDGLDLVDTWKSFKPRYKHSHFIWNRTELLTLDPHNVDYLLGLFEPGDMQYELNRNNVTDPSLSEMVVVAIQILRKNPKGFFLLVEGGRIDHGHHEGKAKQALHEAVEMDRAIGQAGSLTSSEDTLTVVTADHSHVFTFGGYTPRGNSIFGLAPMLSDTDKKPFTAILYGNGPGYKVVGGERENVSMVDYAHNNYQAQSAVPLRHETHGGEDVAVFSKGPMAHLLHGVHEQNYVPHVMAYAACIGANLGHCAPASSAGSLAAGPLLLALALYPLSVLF

[7] = biological target: T3, Heat shock factor protein 1 (Mus musculus, UniProt P38532); experiment: decrease of HSF1-responsive luciferase luminescence – cell-based, NIH3T3, dose retest, confirmation (AID 2382); assay type: functional;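 note: NIH3T3 fibroblasts with HSF1-driven luciferase reporter stressed by proteasome inhibitor MG132; luminescence from HSF1-driven luciferase expression after 8 hours of MG132 stress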
T3 sequence (P38532 whole entry): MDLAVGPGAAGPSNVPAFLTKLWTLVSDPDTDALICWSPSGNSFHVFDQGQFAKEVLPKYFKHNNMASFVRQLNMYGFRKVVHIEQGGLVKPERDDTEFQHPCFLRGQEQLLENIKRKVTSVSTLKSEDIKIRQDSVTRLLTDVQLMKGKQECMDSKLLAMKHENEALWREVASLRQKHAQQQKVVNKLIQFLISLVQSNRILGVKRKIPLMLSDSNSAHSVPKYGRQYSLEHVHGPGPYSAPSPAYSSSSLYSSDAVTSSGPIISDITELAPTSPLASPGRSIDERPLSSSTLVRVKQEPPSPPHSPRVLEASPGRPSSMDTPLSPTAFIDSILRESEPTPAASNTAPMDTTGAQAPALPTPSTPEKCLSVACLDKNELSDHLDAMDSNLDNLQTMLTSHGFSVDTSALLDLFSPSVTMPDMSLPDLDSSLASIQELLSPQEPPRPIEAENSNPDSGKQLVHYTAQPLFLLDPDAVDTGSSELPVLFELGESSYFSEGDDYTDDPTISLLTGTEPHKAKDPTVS

Estrogen receptor = biological target: T4, Estrogen receptor (Homo sapiens, UniProt P03372); experiment: ERα coactivator recruitment enhancers – biochemical, TR-FRET, ERα LBD, dose response (AID 737)
T4 sequence (P03372 whole entry): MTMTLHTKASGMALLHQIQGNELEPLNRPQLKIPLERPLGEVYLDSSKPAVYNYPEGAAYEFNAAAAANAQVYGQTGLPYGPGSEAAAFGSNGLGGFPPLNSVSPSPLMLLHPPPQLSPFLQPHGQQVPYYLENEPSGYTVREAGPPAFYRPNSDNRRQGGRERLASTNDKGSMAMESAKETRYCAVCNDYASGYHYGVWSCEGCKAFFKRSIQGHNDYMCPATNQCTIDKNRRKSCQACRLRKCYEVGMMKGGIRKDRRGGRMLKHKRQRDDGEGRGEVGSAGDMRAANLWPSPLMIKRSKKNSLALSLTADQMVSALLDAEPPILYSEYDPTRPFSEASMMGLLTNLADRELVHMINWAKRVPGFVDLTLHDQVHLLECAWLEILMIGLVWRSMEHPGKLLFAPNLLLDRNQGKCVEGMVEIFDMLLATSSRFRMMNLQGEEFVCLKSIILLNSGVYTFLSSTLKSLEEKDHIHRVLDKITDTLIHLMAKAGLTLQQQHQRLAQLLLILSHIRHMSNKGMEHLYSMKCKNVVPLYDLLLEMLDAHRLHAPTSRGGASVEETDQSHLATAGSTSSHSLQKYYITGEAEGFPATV

[8] = Counterscreen for IDE inhibitors: Luminescence-based cell-based high throughput dose response assay to identify compounds that are cytotoxic to HEK cells. [Related pubchem assays: 434962 (Primary screen (IDE inhibitors in singlicate)), 449730 (Counterscreen (Cytotoxicity in triplicate)), 435028 (Confirmation (IDE inhibitors in triplicate)) …; assay type: functional; conditions: HEK293
Insulin-degrading enzyme = biological target: T5, Insulin-degrading enzyme (Homo sapiens, UniProt P14735); experiment: Dose Response: Fluorescence polarization-based cell-based high throughput dose response assay for inhibitors of insulin-degrading enzyme (IDE). [Related pubchem assays: 434962 (Primary screen (IDE inhibitors in singlicate)), 449730 (Counterscreen (Cytotoxicity in triplicate)), 435028 (Confirmation (IDE inhibitors in triplicate)), 434984 (Summary …; assay type: functional
T5 sequence (P14735 whole entry): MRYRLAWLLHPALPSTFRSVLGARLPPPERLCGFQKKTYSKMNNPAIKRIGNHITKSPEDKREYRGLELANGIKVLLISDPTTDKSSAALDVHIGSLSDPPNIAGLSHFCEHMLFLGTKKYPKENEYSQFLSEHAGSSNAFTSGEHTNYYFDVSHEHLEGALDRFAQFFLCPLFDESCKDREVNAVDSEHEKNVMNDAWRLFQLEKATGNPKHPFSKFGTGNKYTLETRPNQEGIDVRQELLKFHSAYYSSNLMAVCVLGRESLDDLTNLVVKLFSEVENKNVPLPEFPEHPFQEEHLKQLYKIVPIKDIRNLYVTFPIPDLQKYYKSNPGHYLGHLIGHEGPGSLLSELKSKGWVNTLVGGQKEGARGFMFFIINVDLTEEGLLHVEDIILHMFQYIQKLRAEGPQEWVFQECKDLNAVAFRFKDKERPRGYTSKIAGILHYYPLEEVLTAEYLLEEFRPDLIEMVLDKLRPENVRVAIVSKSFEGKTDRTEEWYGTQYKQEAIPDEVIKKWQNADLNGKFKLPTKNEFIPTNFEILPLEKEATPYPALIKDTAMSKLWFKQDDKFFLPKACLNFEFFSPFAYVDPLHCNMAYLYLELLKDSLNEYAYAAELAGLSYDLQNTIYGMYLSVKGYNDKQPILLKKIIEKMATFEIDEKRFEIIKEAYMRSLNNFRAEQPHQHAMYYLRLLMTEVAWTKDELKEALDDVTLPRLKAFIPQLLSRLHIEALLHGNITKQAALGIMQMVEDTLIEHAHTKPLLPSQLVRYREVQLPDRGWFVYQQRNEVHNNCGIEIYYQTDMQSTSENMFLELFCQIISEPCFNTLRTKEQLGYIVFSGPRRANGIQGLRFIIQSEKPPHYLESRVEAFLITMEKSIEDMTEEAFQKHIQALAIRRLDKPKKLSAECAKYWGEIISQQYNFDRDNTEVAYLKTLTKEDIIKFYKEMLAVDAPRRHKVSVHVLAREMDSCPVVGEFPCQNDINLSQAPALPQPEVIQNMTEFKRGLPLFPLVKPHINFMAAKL

[9] = mitochondrial function rescue without frataxin homolog – Friedreich's ataxia, plus single-dose screen, dose response (AID 1465); assay type: functional;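 note: yeast depleted of Yfh1p frataxin homolog grown on glycerol needing respiration; WST-1 tetrazolium dye reduction as measure of cellular dehydrogenase metabolic activity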
[10] = Luminescence-based cell-based high throughput dose response assay to identify activators of the DAF-12 from the parasite S. stercoralis (ssDAF-12).; assay type: functional
[11] = biological target: T6, Oxysterols receptor LXR-beta (Homo sapiens, UniProt P55055); experiment: LXR agonists, Gal4 luciferase reporter, dose response, counter-screen for ssDAF-12 agonist project, cell-based, luminescence, HEK293, S. stercoralis campaign (AID 720737); assay type: functional; conditions: read-out: IC50 (the source's name)
T6 sequence (P55055 whole entry): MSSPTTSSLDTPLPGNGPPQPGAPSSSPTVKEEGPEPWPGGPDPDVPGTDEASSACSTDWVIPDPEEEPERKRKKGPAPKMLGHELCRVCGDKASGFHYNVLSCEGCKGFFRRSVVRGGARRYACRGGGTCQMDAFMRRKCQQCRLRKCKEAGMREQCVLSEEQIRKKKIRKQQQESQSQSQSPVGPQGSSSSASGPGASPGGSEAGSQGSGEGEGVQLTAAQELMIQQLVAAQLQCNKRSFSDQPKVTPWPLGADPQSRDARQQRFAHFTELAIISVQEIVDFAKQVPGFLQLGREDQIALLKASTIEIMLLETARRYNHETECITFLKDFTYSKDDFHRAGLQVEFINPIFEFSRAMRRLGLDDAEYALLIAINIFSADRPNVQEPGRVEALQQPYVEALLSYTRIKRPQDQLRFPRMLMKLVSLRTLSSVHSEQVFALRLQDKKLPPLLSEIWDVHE

NS3, sequence (A3EZJ3 whole entry): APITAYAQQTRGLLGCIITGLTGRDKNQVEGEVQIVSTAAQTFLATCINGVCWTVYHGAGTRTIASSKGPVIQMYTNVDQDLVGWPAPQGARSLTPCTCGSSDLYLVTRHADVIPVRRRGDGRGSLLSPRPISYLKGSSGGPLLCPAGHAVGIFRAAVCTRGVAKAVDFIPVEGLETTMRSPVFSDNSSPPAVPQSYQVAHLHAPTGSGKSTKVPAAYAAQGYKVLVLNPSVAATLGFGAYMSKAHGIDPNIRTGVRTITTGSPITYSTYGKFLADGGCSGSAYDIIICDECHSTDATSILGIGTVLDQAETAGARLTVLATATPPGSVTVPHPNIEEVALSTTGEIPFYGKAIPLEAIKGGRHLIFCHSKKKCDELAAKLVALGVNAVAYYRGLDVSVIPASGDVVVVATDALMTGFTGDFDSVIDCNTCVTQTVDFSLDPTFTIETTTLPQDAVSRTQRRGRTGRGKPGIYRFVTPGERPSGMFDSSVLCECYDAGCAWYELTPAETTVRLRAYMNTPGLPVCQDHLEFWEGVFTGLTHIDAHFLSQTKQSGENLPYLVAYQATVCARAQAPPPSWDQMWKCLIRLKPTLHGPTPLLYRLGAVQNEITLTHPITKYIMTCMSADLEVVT
Aspartyl aminopeptidase, sequence (Q8I2J3 whole entry): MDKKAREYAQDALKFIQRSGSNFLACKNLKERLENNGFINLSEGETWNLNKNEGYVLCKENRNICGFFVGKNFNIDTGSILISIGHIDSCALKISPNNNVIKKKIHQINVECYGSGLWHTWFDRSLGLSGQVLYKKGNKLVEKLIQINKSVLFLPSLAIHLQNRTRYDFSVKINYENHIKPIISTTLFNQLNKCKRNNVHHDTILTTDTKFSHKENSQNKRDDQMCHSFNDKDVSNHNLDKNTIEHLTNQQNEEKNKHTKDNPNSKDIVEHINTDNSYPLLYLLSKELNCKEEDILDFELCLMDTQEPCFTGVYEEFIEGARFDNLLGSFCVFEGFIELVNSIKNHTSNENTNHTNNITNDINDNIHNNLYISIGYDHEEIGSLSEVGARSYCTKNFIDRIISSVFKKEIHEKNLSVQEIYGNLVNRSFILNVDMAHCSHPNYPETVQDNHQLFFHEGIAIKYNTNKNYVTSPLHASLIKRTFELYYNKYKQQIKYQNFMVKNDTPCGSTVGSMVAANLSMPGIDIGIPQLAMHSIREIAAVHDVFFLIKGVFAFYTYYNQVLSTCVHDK
Ion channel NompC, sequence (Q7T1G6 whole entry): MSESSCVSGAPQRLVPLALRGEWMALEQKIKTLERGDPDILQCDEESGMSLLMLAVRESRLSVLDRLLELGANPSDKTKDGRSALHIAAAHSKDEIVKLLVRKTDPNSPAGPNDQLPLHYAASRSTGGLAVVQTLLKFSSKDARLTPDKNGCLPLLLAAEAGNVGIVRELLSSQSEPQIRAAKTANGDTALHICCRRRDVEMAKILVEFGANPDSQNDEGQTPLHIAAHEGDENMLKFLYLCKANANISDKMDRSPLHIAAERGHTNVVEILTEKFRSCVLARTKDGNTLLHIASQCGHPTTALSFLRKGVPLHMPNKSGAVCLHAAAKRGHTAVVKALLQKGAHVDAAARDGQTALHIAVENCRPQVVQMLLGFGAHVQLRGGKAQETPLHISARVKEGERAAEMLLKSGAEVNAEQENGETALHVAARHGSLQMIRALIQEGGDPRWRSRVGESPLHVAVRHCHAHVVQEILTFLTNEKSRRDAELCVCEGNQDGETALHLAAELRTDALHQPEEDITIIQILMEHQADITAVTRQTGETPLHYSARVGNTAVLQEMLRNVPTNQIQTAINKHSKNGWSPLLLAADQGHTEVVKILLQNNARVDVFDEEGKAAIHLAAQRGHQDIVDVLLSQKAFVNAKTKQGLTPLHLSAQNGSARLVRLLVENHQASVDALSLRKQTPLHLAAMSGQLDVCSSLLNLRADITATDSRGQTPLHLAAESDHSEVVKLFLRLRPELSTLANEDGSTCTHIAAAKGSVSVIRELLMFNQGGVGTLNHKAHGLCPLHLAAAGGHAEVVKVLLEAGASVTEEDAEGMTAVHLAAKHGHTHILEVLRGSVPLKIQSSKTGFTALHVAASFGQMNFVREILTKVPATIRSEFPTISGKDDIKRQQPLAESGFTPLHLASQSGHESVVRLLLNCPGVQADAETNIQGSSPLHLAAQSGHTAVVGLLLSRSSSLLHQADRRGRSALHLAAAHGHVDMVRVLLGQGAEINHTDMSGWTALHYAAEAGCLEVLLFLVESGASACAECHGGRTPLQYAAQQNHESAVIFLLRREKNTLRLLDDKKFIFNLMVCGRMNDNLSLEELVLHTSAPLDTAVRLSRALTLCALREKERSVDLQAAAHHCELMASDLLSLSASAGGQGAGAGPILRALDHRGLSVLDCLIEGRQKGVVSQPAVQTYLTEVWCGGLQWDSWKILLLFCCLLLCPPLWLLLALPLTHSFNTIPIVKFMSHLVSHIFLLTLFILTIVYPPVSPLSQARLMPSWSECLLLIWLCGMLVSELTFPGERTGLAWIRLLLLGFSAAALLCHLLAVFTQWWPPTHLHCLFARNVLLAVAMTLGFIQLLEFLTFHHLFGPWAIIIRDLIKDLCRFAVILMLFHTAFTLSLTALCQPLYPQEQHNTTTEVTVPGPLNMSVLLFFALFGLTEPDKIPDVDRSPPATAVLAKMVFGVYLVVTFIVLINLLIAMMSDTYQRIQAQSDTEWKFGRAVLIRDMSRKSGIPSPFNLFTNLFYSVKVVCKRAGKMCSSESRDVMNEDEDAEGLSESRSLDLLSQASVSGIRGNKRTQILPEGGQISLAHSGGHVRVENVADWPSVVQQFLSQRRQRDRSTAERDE
Mucolipin-3, sequence (Q8TDD5 whole entry): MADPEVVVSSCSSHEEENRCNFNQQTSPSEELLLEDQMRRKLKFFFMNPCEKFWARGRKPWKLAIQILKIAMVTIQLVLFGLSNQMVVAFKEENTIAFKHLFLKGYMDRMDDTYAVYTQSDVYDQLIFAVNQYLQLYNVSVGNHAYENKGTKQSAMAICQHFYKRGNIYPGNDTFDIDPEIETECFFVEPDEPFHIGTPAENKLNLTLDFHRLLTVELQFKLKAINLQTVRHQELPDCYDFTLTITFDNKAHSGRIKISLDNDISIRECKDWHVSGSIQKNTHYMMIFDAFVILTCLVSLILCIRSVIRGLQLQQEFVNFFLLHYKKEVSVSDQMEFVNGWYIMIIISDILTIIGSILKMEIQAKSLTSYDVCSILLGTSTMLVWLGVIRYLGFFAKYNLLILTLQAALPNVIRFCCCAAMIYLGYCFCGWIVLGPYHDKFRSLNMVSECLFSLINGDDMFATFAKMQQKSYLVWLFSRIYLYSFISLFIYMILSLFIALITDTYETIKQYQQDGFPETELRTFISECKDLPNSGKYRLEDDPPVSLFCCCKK
Procathepsin L, sequence (P07711 whole entry): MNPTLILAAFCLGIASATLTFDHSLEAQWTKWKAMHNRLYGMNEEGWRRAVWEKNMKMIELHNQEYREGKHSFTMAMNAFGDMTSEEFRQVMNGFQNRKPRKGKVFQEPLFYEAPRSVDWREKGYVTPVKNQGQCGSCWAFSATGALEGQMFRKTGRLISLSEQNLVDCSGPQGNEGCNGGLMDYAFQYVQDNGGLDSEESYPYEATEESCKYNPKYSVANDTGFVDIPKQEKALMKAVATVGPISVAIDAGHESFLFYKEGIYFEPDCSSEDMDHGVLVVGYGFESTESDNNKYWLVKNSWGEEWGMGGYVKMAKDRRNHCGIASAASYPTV
26S proteasome non-ATPase regulatory subunit 14, sequence (O00487 whole entry): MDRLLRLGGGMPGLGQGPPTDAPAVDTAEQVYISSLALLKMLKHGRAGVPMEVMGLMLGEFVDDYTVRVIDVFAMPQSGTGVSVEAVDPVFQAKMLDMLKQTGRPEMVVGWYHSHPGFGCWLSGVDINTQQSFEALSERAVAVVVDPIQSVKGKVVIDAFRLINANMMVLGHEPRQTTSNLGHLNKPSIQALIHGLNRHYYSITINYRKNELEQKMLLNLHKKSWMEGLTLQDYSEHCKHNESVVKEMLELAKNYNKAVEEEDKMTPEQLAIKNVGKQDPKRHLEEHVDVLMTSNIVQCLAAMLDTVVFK
72 kDa type IV collagenase, sequence (P08253 whole entry): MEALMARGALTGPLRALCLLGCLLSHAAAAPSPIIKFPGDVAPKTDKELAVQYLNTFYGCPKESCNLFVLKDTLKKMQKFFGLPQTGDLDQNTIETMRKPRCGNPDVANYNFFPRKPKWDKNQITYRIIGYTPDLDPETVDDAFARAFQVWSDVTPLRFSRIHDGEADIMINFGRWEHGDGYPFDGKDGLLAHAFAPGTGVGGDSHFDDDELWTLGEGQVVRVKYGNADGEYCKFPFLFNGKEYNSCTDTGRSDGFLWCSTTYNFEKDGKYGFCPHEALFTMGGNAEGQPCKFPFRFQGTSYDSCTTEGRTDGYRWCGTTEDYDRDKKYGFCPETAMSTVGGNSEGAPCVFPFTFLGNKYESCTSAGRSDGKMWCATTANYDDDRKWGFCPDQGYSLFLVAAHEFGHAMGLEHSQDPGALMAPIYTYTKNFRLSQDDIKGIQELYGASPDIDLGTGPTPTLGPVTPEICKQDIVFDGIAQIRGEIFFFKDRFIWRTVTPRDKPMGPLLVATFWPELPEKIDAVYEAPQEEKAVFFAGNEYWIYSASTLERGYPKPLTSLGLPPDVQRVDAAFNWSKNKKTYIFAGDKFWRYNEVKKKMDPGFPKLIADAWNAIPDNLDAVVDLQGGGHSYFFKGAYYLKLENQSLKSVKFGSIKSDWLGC

O=C(O)c1c[nH]nc1-n1cnnn1
IC50 (Aspartyl aminopeptidase): 1.27 µM (active)
IC50 (Procathepsin L): > 59.6 µM (not active)

Cc1ccc(C(=O)Nc2scc(-c3ccccc3)c2C(=O)O)o1
IC50 (Aminopeptidase N): 68.4 µM (active)
IC50 [1]: 34 µM (active)

CCOC(=O)C(C)(C)N(Cc1cccc(C)c1)S(=O)(=O)c1cccc([N+](=O)[O-])c1
EC50 (Mucolipin-3): > 29.9 µM (not active)
EC50 (Ion channel NompC): > 29.9 µM (not active)

O=C1NC(=S)N(CCC2=CCCCC2)C(=O)/C1=C/NNC(=O)c1ccccc1
EC50 [2]: > 150 µM (inconclusive)
EC50 [3]: > 38 µM (not active)
IC50 (NS3): 5.41 µM (active)
IC50 [4]: 43.9 µM (active)
IC50 [5]: > 100 µM (inactive)
IC50 (Prothrombin): 62.2 µM (active)

Cc1ccc(C(=O)NN=C(S)Nc2cccc3ccccc23)s1
EC50 [6]: 62.6 µM (not active)

COc1nnc(-c2ccc(C(=O)N3C[C@@H]4C[C@H](C3)c3cccc(=O)n3C4)cc2)c2ccccc12
EC50 [7]: > 195 µM (not active)
EC50 (Estrogen receptor): 15 µM (active)

N#C/C(=C\c1ccc(N2CCOCC2)o1)C(=O)NCC1CCCO1 (stereo not given)
IC50 [8]: > 55.7 µM (not active)
IC50 (Insulin-degrading enzyme): 25.3 µM (not active)
EC50 [9]: > 100 µM (active)
IC50 [10]: > 67.5 µM (inactive)
EC50 [11]: > 67.5 µM (inactive)

Reference: ChEMBL document CHEMBL1201862, “PubChem BioAssay data set” (2004)
